Source: patent publication US4677968A, “Methods of testing the reaction of various substances on living human skin” (priority 1986, dated 1987)

Columns and labels:
[1] = test system: flap; conditions: rat, in vivo
Description: Following an intravenous injection of fluorescein, the amount of fluorescein that moves into tissue, and the rapidity with which it clears, depends upon the volume of blood to the area, the adequacy of venous drainage, and renal clearance. The influx and clearance of fluorescein, as measured with a surface hand-held dermofluorometer, has been evaluated as a function of time after occluding either the supplying artery or the draining vein.
Instrumentation used included: (1) Dermatome (Brown Electro-Dematome, Model 666, Zimmer Inc., Warsaw, IN) to generate the split-thickness skin grafts; (2) an operating microscope (Model OPMI 6-SD Carl Zeiss, West Germany) equipped with a fiberoptic illuminator (Model 310187, Dyonics, Andover, MA), to isolate the microvasculature supplying the skin flap; (3) Laser Doppler flow velocimeter (LD 5000, Med Pacific, Seattle, WA)--to noninvasively assess microcirculation of the skin; (4) electromagnetic blood flow transducer, C type 0.5 mm, 0.8 mm, and 1 mm in diameter (C&C INstruments, Culver City, CA)--to directly assess blood flow through the vessels supplying and draining the flap; and (5) a hand-held fiberoptic dermofluorometer (Fluoroscan-Santa Barbara Technology, Santa Barbara, CA), to assess blood flow by monitoring the appearance and clearance of fluorescein in the flap.

[2] = test system: rat/rat skin sandwich flap (enzyme in the skin, deaminase); conditions: stated as known; cited from earlier work
[3] = test system: rat/rat flap; assay: Role of blood flow on percutaneous absorption (iontophoresis of phenylephrine), rat/rat flap; format: in vivo; conditions: iontophoresis, circumscribed area
Description: (§1) In this example the experimental procedure described in Example 1 was followed and a rat/rat flap was prepared using an identical procedure. The purpose of this example is to illustrate the role of blood flow on percutaneous absorption processes. In this example, blood flow was locally altered by iontophoresis of phenylephrine. […] The experiment was repeated two weeks later in a nontreated mode, i.e., no alteration in the microcirculation. […] In the situtaton where there is no alteration in the mircocirculation, peak levels occur in approximately 10 minutes. There results reveal that in situations, where compounds are rapidly absorbed, microcirculation to the skin is of critical importance.

[4] = test system: skin flap (system described in Example 1); assay: In vivo topical application of caffeine in the flap system of Example 1
Description: (§2) Compounds will frequently bind to the skin. Thus, after being absorbed through the outer protective layer, the stratum corneum, there is a possibility that the compound being tested will not be absorbed into the blood stream. It is anticipated that caffeine could be such a product. […] It is surprising to observe peak levels of caffeine within 30 minutes of topical application in the in vivo situation using the system described in Example 1. […] This confirmed the notion that there are binding sites of caffeine within the dermis.

[5] = as above; conditions: rat, topical or ocular; in vivo, topical application; read-out: time of peak levels of caffeine
Description: as §2

[6] = test system: human skin; assay: In vitro topical application of caffeine to human skin; format: in vitro ADME
Description: as §2

[7] = test system: host rat graft or human graft (rat skin vs. human skin); conditions: in vivo
Description: The objective of this experiment was to determine differences in absorption, rat skin vs. human skin, rat graft vs. rat host skin, with a second agent, caffeine.

[8] = test system: rat/rat skin sandwich flap (enzyme in the skin, deaminase); assay: Metabolism of vidarabine in the rat/rat skin sandwich flap; format: in vivo; conditions: radiolabeled vidarabine on rat/rat flap, half-cell diffusion chamber
Description: (§3) In this example, the procedure followed in Example 1 was followed to produce a rat/rat skin flap with accessible vasculature.
Test compounds were applied to either the host or the graft side of the flap. Test compounds in their vehicles were placed in either a 1.5 cm diameter well, prepared from a HolliSeal® skin barrier (a sheet of silicone material with adhesive on both sides) (Hollister Incorporated, Libertyville, IL), or in a half-cell diffusion chamber. The HolliSeal well is generally covered with Parafilm to prevent evaporation. […]
(§4) At the time of an experiment, with the animal under Ketamine anesthesia, the vessels supplying and draining the flap were exposed through an incision over the inguinal ligament. […] Concentration of radiolabeled compound, or its metabolities, in the blood were subsequently assessed by liquid scintillation counting and chromatographic techniques. Concentrations in the donor chamber were sampled periodically and quantitated in a similar manner.
Additional experiments, using an antiviral substance, vidarabine, have been performed to assess the metabolic activity in the skin. […] Accordingly, radiolabeled vidarabine was placed on a rat/rat skin sandwich flap system, and the amount of vidarabine and its metabolite, ara-H, was measured in the blood draining the flap.

[9] = test system: rat/rat flap (host skin / grafted skin); assay: Absorption of benzoic acid across host vs. graft side of the rat/rat skin flap (flap blood sampling); format: in vivo
Description: Breeding pairs of nude rats were obtained from the Animal Production Facility of the National Cancer Institutes (Frederick, MD) and the colony was expanded by mating male rats homozygous for nude (athymic) with females heterozygous for nude.
(§5) A skin flap was generated by incising the abdominal skin of the rat along three sides. The donor STSG was trimmed to approximate the size of the epigastric flap and was placed in the wound, with the epidermis facing the abdominal musculature of the host. The overlying epigastric host skin was returned to its normal anatomic position. The epigastric skin and the STSG were sutured in place, creating a sandwich having a vascular pedicle sandwiched between the skin layers. This surgical procedure produced a flap which received essentially all of its blood from the superficial epigastric vessels.
(§6) Two weeks later, the femoral vessels distal to the origin of the superficial epigastric vessels were surgically isolated and divided. This manipulation maximized the blood flow from the femoral artery to the sandwich flap. The flap was raised and isolated on its neurovascular pedicle (a single artery, vein, and nerve) using the operating microscope.
(§7) The donor site on the rat's abdomen was covered with a STSG from another syngeneic animal and sutured in place. The flap, on its isolated vascular pedicle, was moved through a subcutaneous tunnel to the rat's dorsum, where it was sutured in place.
as §3
Test compounds were applied to either the host or the graft side of the flap. Test compounds in their vehicles were placed in either a 1.5 cm diameter well, prepared from a HolliSeal® skin barrier (a sheet of silicone material with adhesive on both sides) (Hollister Incorporated, Libertyville, IL), or in a half-cell diffusion chamber. The HolliSeal well is generally covered with Parafilm to prevent evaporation. The half-cell diffusion chamber has a 2.7 ml volume, an impeller to avoid problems of unstirred solutions, a water jacket to maintain a constant temperature, and a sampling port (Dependable Scientific Glass, Salt Lake City, UT).
In an initial series of experiments ^14 C benzoic acid, specific activity 58.6 mCi/mM (New England Nuclear, Boston MA) in phosphate buffered saline, was used in various concentrations in the HolliSeal well and the half-cell diffusion chamber. These experiments were designed to compare the absorption of benzoic acid across the host and graft sides of the flap as a means of validating the system. In another series of experiments 3H-vidarabine, specific activity 38 mCi/mg (2.7 ml), was added to a half-cell diffusion chamber to validate the flap as a system to study the metabolism of a drug as it crosses the skin. 3H-vidarabine, specific activity 38 mCi/mg (2.7 ml), was added to a half-cell diffusion chamber attached to rat/rat skin sandwich flaps, which had previously been tape-stripped.
At the time of an experiment, with the animal under Ketamine anesthesia, the vessels supplying and draining the flap were exposed through an incision over the inguinal ligament. A venotomy was made in the femoral vein proximal to the juncture of the superficial epigastric vein to sample flap blood. A venotomy was also made in the contralateral femoral view to sample systemic blood. The blood samples (approximately 40 ul) were collected periodically in heparinized microhematocrit capillary tubes. Concentration of radiolabeled compound, or its metabolities, in the blood were subsequently assessed by liquid scintillation counting and chromatographic techniques. Concentrations in the donor chamber were sampled periodically and quantitated in a similar manner. […]

[10] = Role of blood flow on percutaneous absorption (iontophoresis of phenylephrine), rat/rat flap; format: in vivo; conditions: rat, in vivo, topical or ocular
Description: as §1

[11] = test system: rat/human flap (host side); assay: Transdermal flux of benzoic acid in the rat/human flap, host side; format: in vivo
Description: as §5, §6, §7
Test compounds were applied to either the host or the graft side of the flap. […]
as §4, with “manner. […]” for “manner.”
In this experiment, 20 ug of ^14 C benzoic acid (4.5 uCi) in 95% ethanol was applied to the host side of the flap. […] Thereafter steady state was attained and flux was calculated to be 0.045 uCi/min/cm^2. […]

[12] = grafted side, three weeks later

O=C1OC2(c3ccc(O)cc3Oc3cc(O)ccc32)c2ccccc21 [fluorescein]
appearance of fluorescein in the flap [1]: failure of the appearance of fluorescein in the flap

Nc1ncnc2c1ncn2[C@@H]1O[C@H](CO)[C@@H](O)[C@@H]1O [vidarabine]
metabolism by an enzyme in the skin, deaminase [2]: metabolized by an enzyme in the skin, deaminase

CNC[C@H](O)c1cccc(O)c1 [phenylephrine]
effect on local microcirculation [3]: decreased microcirculation

Cn1c(=O)c2c(ncn2C)n(C)c1=O [caffeine]
effect of a second dose on absorption ([4]; in vivo, two doses): greater than predicted absorption | binding in the skin ([4]; lower layer of skin / dermis, in vitro vs. in vivo comparison): there are binding sites within the lower layer of skin which bind caffeine | Tmax [5]: ≤ 30 min | time until appearance in the donor chamber ([6]; topical, human skin): 6 to 12 h | effect of a second dose on absorption ([6]; two doses): did not alter absorption | increase in absorption, rat skin relative to human skin [7]: ~8 fold

O=c1[nH]cnc2c1ncn2[C@@H]1O[C@H](CO)[C@@H](O)[C@@H]1O [ara-H]
back-diffusion through the skin into the donor chamber [8]: diffused back through the skin into the donor chamber

O=C(O)c1ccccc1 [benzoic acid]
decrease in concentration in the donor well (time course) ([9]; donor well): linear with time | benzoic acid concentration in the donor well, start of decrease ([9]; donor well, decreasing from): 2.2 µg/mL | benzoic acid concentration in the donor well, end of decrease ([9]; donor well, decreasing to): 0.75 µg/mL | course of flux after the peak [9, 12]: even more rapid decline | peak flux across the grafted side [9, 12]: 2.2 uCi/min/cm^2 | course of flux after the peak ([9]; host skin): decreased rapidly | time of peak flux ([9]; host skin, HolliSeal well, 0.52 uCi/ul in unbuffered water, 100 ul): 30 min | flux across host skin ([9]; host skin, assuming a blood flow of 1.5 ml/min): 0.84 uCi/min/cm^2 | total amount absorbed ([9]; same for host and grafted side): 1.04 µg·min/µL | Tmax ([10]; decreased microcirculation (iontophoresis of phenylephrine), read-out: time of peak benzoic acid levels in flap blood (converted)): ~140 min | Tmax ([10]; no alteration in the microcirculation, two weeks later, read-out: time of peak levels in flap blood (converted)): ~10 min | steady state flux ([11]; 20 ug (4.5 uCi) in 95% ethanol): 0.045 uCi/min/cm^2 | time of peak flux ([11]; 20 ug (4.5 uCi) in 95% ethanol): one | time of peak flux ([11]; half-cell diffusion chamber, maximal hydration of the skin): ≤ 10 min
